Assay results taken from PubChem BioAssay (NCI).
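Each compound was tested at five concentrations against cells in 96-well plates for 48 hours. Definition used: TGI = concentration required for complete inhibition of growth.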

How the values were obtained:
Assay in all cases: growth of human tumour cells (NCI), 48 h
HOP-62 NSCLC = test system: HOP-62 NSCLC
LOX IMVI melanoma = test system: LOX IMVI melanoma
M14 melanoma = test system: M14 melanoma
MDA-MB-231 breast = test system: MDA-MB-231 breast
MDA-N = test system: MDA-N
RPMI-8226 leukemia = test system: RPMI-8226 leukemia
SF-295 CNS = test system: SF-295 CNS
SK-MEL-28 melanoma = test system: SK-MEL-28 melanoma
SK-MEL-5 melanoma = test system: SK-MEL-5 melanoma
SR leukemia = test system: SR leukemia
UACC-62 melanoma = test system: UACC-62 melanoma

SMILES | TGI (HOP-62 NSCLC) | TGI (LOX IMVI melanoma) | TGI (M14 melanoma) | TGI (MDA-MB-231 breast) | TGI (MDA-N) | TGI (RPMI-8226 leukemia) | TGI (SF-295 CNS) | TGI (SK-MEL-28 melanoma) | TGI (SK-MEL-5 melanoma) | TGI (SR leukemia) | TGI (UACC-62 melanoma)
NC1(c2cc3ccccc3s2)CCCC1 | > 100 µM | > 100 µM | 56.2 µM | > 100 µM | > 100 µM | 34.4 µM | > 100 µM | 48.1 µM | 68.2 µM | 44.2 µM | > 100 µM
O=C(/C=C/c1ccc2c(c1)OCO2)c1ccc(O)cc1 | 66.1 µM | 24.8 µM | 32.2 µM | 31.5 µM | 22.9 µM |  | 32.6 µM | 41.1 µM | 29.1 µM | 4.96 µM | 33 µM
S=C(N/N=C(/c1ccccc1)c1ccccn1)N(Cc1ccccn1)Cc1ccccn1 | 3.17 µM | 1.74 µM | 2.97 µM | 2.72 µM | 7.62 µM | 3.38 µM | 1.82 µM | 5.45 µM | 3.12 µM | 43.5 µM | 2.21 µM
Nc1nccc(-c2c[nH]c3cc(Br)ccc23)n1 | > 100 µM | 53.4 µM | 43.9 µM | > 100 µM | 45.8 µM | 49.5 µM | > 100 µM | 86.8 µM | 36.7 µM | 46.7 µM | 47.6 µM
Cc1ccccc1OC(C)C(=O)NN1C(=O)CSC1c1ccccc1 (stereo unspecified) | > 100 µM | > 100 µM | > 100 µM | > 100 µM | > 100 µM | > 100 µM | > 100 µM | > 100 µM | > 100 µM | 48.8 µM | > 100 µM
CC(=O)Nc1nc(NC(C)=O)c2[nH]c(CO)nc2n1 | > 100 µM | > 100 µM | > 100 µM | > 100 µM | > 100 µM |  | > 100 µM | > 100 µM | > 100 µM | > 100 µM | > 100 µM
Nc1ncnc2c1[nH]c(=O)n2-c1ccccc1 | > 100 µM | > 100 µM | > 100 µM |  | > 100 µM | > 100 µM | > 100 µM | > 100 µM | > 100 µM | > 100 µM | > 100 µM
COc1ccc(-c2[nH]c3c4c(nc5c(c24)C(=O)CC(C)(C)C5)CC(C)(C)C3)cc1 | > 100 µM | > 100 µM | > 100 µM | > 100 µM | > 100 µM |  | > 100 µM | > 100 µM | > 100 µM | 92.1 µM | > 100 µM
O=C(OCc1ccccc1)N1CCNCCN(C(=O)OCc2ccccc2)CCNCC1 | 33.4 µM | 27.5 µM |  |  | 31 µM | 47.3 µM | 64.3 µM | 45.3 µM | 26.7 µM | > 100 µM | 70.3 µM
CC(=O)Nn1c(=S)[nH]c2ccccc21 | > 100 µM | > 100 µM | > 100 µM | > 100 µM | > 100 µM | > 100 µM | > 100 µM | > 100 µM | > 100 µM | > 100 µM | > 100 µM
O=C(C1OC1c1ccc(Br)cc1O)C12CC3CC(CC(C3)C1)C2 (stereo unspecified) | 67.9 µM | 28.7 µM | 38.6 µM | 43.6 µM | 32.8 µM | 47.5 µM | 43 µM | 46.8 µM | 56.8 µM |  | 40.6 µM
CN(C)CCNS(=O)(=O)c1ccc(N)cc1 | 32.4 µM |  | > 100 µM | > 100 µM | > 100 µM | > 100 µM | > 100 µM | > 100 µM | > 100 µM | > 100 µM | > 100 µM
COC(=O)C1CC(C=[N+](C)C)=C(SC)N1C(=O)OCc1ccccc1 (stereo unspecified) | > 100 µM |  | > 100 µM | > 100 µM | > 100 µM | > 100 µM | > 100 µM | > 100 µM | > 100 µM | > 100 µM | > 100 µM
Cc1ccc(-c2csc(=Nc3ccccc3)n2NC(=O)c2ccncc2)cc1 | > 100 µM | > 100 µM | > 100 µM | > 100 µM | > 100 µM | 75.8 µM | 74.9 µM | > 100 µM | 34.8 µM | > 100 µM | 70.6 µM
O=C(c1ccccn1)C1(N2CCCCC2)CCCCC1 | > 100 µM | > 100 µM | > 100 µM | > 100 µM | > 100 µM | > 100 µM | > 100 µM | > 100 µM | > 100 µM | > 100 µM | > 100 µM
C=CC1(CC/C(=C\[N+](=O)[O-])c2ccc(OC)c(OC)c2)OCC(C)(C)CO1 | 60.7 µM | 55.8 µM | 39.6 µM | 75.8 µM | 55.5 µM |  | 53.1 µM | 50.3 µM | 87.2 µM | 29.4 µM | 29.4 µM
CC(C)=CCC[C@@H](C)c1c(O)c(O)c(C)c2nccnc12 | > 77.9 µM | > 100 µM | > 100 µM | > 100 µM | > 100 µM | > 62.7 µM | > 71.2 µM | > 100 µM | 18.9 µM | > 100 µM | 50.5 µM
Nc1nc2c(c(-c3cccc(Cl)c3)n1)COC/C2=C\c1cccc(Cl)c1 | > 100 µM | > 100 µM | > 100 µM | > 100 µM | > 100 µM | > 100 µM | > 100 µM | > 100 µM | > 100 µM |  | > 100 µM
Cc1ccc(N(Cc2ccccc2)Cc2ccccc2)cc1 | > 100 µM | > 100 µM | > 100 µM | > 100 µM | > 100 µM | 43.6 µM | > 100 µM | > 100 µM | > 100 µM |  | > 100 µM
O=C1CCCCC1CN1CCCCC1 (stereo unspecified) | > 100 µM | > 100 µM | > 100 µM | > 100 µM | > 100 µM |  | > 100 µM | > 100 µM | > 100 µM | > 100 µM | > 100 µM
CC1(C)O[C@H]2OC(CO[Si](C)(C)C(C)(C)C)C(N=[N+]=[N-])[C@H]2O1 (stereo partly specified) | 34.1 µM | 35.9 µM | 43.9 µM |  | 53.8 µM | 28.8 µM | 24.9 µM | 60.9 µM |  | 32.2 µM | 52.6 µM
